Nine molecules from paper PMC12116762, “Topobexin targets the Topoisomerase II ATPase domain for beta isoform-selective inhibition and anthracycline cardioprotection” (Nature Communications, 2025) can be followed below.

In data set [1] the test system is neonatal rat ventricular cardiomyocytes (NVCM). The experiment in a line: Protection against DAU-induced cytotoxicity (LDH release) in NVCM. It counts as cell-based. More on the design: key to Suppl.Fig.3 DAU-induced cytotoxicity (LDH release) in NVCM, mean of independent replicates / LDH release (DAU-induced cytotoxicity), mean of independent replicates: % of total LDH activity. As to conditions: for minimal effective concentration: Rattus norvegicus, Cardiomyocyte, NVCM, protection against DAU 1.2 µM, n=4, read-out: LEC = lowest effective concentration. On the procedure: (§1) The protective effects of the BNS-22 and newly prepared compounds were evaluated using primary cultures of neonatal rat cardiomyocytes isolated in house as previously described. Hearts isolated from 1- to 3-day-old Wistar rats were minced in buffer (1.2 mM MgSO4 · 7H2O, 116 mM NaCl, 5.3 mM KCl, 1.13 mM NaH2PO4 · H2O, 20 mM 4-(2-hydroxyethyl)-1-piperazine ethanesulfonic acid (HEPES), glucose 1 mg/mL) on ice, then serially digested (20 min, six repetitions) at 37 °C with collagenase type II (60 U/mL, Gibco). After 2 h pre-plating in a 150 mm Petri dish per approximately 20 hearts to minimize non-myocyte contamination, cells were plated in 24-well gelatin-coated plates at a density of 400,000 cells per well. Cells were cultured at 37 °C and 5% CO2 in Dulbecco’s modified Eagle medium (DMEM)/ F12 culture medium supplemented with 10% horse serum, 5% fetal bovine serum (FBS), 20 mM sodium pyruvate, 50 U/mL penicillin, and 50 μg/mL streptomycin. Freshly isolated cells were left for 40 h to attach and form a culture of spontaneously beating cardiomyocytes, then the medium was changed to DMEM/F12 medium supplemented with 5% fetal bovine serum, 20 mM sodium pyruvate, 50 U/mL penicillin, and 50 μg/mL streptomycin. For the experiments, the medium was changed to serum- and pyruvate-free DMEM/F12 with 50 U/mL penicillin and 50 μg/mL streptomycin. Cardiomyocytes were pretreated with BNS-22 or new compounds for 3 h and then coincubated with DAU (1.2 µM) for another 3 h. After the DAU treatment period, the culture medium was exchanged for the drug-free DMEM/F12 with 50 U/mL penicillin and 50 μg/mL streptomycin for the 48 h follow-up. Experiments to determine the inherent toxicity of each compound studied follow the same schedule, only no DAU was added. Subsequently, the culture medium sample was taken from each well for evaluation of lactate dehydrogenase (LDH) activity. The total LDH activity of each sample for normalization was measured after 1 h of incubation at 37 °C in lysis buffer (0.1 M potassium phosphate, 1% Triton X-100, 1 mM dithiothreitol (DTT), 2 mM EDTA, pH 7.8, 15 min in RT). All samples were immediately analyzed in Tris HCl buffer (pH 8.9) containing 35 mM lactic acid and 5 mM NAD^+. The rate of NAD^+ reduction was monitored spectrophotometrically at 340 nm for 2 min. The slope of the linear region was calculated, and the results were expressed as a percentage of the total LDH. Each presented data point was obtained from distinct sample.
Background: Release of lactate dehydrogenase indicates damage to the cell membrane.

For data set [2] the test system is unchanged. The experiment in a line: Inherent toxicity (LDH release) in NVCM. It is filed as cell-based. More on the design: key to LDH release (inherent toxicity), mean of independent replicates: % of total LDH activity. As to conditions: NVCM; for LTC = lowest toxic concentration: compound alone, n=4; for LDH release (inherent toxicity), mean of independent replicates: Suppl.Fig.4. As for the experimental part: as §1

For the molecule `CCCCc1cc(=O)oc2c(C(=O)N3CCCc4ccccc43)c(OC)ccc12` [3d], the minimal effective concentration in data set [1] came to 1 µM. The “Suppl.Fig.3 DAU-induced cytotoxicity (LDH release) in NVCM, mean of independent replicates” value (“Suppl.Fig.3 DAU-induced cytotoxicity” below) in data set [1] (compound 0.01 µM + DAU 1.2 µM) is recorded as 50.7769; in data set [1] (compound 0.1 µM + DAU 1.2 µM), 40.2805; in data set [1] (compound 1 µM + DAU 1.2 µM) it was 35.9225; in data set [1] (compound 10 µM + DAU 1.2 µM), 25.0218; in data set [1] (compound 30 µM + DAU 1.2 µM), 30.6397. In addition, the “LTC = lowest toxic concentration” value in data set [2] was more than 30 µM. For the same molecule, the “LDH release (inherent toxicity), mean of independent replicates” value (from here on “LDH release (inherent toxicity), mean”) in data set [2] (compound alone 0.01 µM) was determined as 14.5175; in data set [2] (compound alone 0.1 µM), 14.1948; in data set [2] (compound alone 1 µM), 16.3261; in data set [2] (compound alone 10 µM) it was 19.5649; in data set [2] (compound alone 30 µM), 19.0356.
In the case of `CCCOc1ccc2c(CC)cc(=O)oc2c1C(=O)N1CCCc2ccccc21` [4b], the minimal effective concentration in data set [1] came to 0.1 µM. In addition, the “Suppl.Fig.3 DAU-induced cytotoxicity” value in data set [1] (compound 0.01 µM + DAU 1.2 µM) came out at 47.614; in data set [1] (compound 0.1 µM + DAU 1.2 µM), 43.0735; in data set [1] (compound 1 µM + DAU 1.2 µM) it was 30.3899; in data set [1] (compound 10 µM + DAU 1.2 µM), 27.961; in data set [1] (compound 30 µM + DAU 1.2 µM), 25.8835; in data set [1] (compound 100 µM + DAU 1.2 µM) it was 28.6308. The “LDH release (inherent toxicity), mean” value in data set [2] (compound alone 0.01 µM) was 14.7625; in data set [2] (compound alone 0.1 µM), 14.2064; in data set [2] (compound alone 1 µM), 13.8348; in data set [2] (compound alone 10 µM), 17.7301; in data set [2] (compound alone 30 µM) it was 17.7791; in data set [2] (compound alone 100 µM), 17.3487.
For `CCCOc1ccc2c(C)cc(=O)oc2c1C(=O)N1CCCc2ccccc21` [4a], in data set [1], the minimal effective concentration is 10 µM. The “Suppl.Fig.3 DAU-induced cytotoxicity” value in data set [1] (compound 0.1 µM + DAU 1.2 µM) is 45.8753; in data set [1] (compound 1 µM + DAU 1.2 µM), 42.086; in data set [1] (compound 10 µM + DAU 1.2 µM), 32.6284; in data set [1] (compound 30 µM + DAU 1.2 µM) it was 30.3987. Further, the “LTC = lowest toxic concentration” value in data set [2] was more than 30 µM. Also, the “LDH release (inherent toxicity), mean” value came to 13.7469 in data set [2] (compound alone 0.1 µM), 13.1211 in data set [2] (compound alone 1 µM), 16.3565 in data set [2] (compound alone 10 µM) and 19.993 in data set [2] (compound alone 30 µM).
`CCCCc1cc(=O)oc2c(C(=O)N3CCCc4ccccc43)c(OC)cc(OC)c12` [1d]: the minimal effective concentration in data set [1] amounted to 1 µM. In addition, the “Suppl.Fig.3 DAU-induced cytotoxicity” value in data set [1] (compound 0.1 µM + DAU 1.2 µM) came out at 44.1431; in data set [1] (compound 1 µM + DAU 1.2 µM) it was 30.0603; in data set [1] (compound 10 µM + DAU 1.2 µM), 34.1459; in data set [1] (compound 30 µM + DAU 1.2 µM), 74.3781; in data set [1] (compound 100 µM + DAU 1.2 µM) it was 88.2455. In addition, in data set [2], the “LTC = lowest toxic concentration” value amounted to 30 µM. Besides, the “LDH release (inherent toxicity), mean” value in data set [2] (compound alone 0.1 µM) was 14.3468; in data set [2] (compound alone 1 µM), 13.6854; in data set [2] (compound alone 10 µM) it was 20.4098; in data set [2] (compound alone 30 µM), 50.8474; in data set [2] (compound alone 100 µM) it was 76.157.
As to `CCCCc1cc(=O)oc2c(C(=O)N3CCCc4ccccc43)c(OCCC)ccc12` [4d], the minimal effective concentration in data set [1] was 1 µM. For the same molecule, the “Suppl.Fig.3 DAU-induced cytotoxicity” value in data set [1] (compound 0.01 µM + DAU 1.2 µM) is given as 36.4234; in data set [1] (compound 0.1 µM + DAU 1.2 µM), 31.1377; in data set [1] (compound 1 µM + DAU 1.2 µM) it was 25.022; in data set [1] (compound 10 µM + DAU 1.2 µM), 40.2951; in data set [1] (compound 30 µM + DAU 1.2 µM) it was 73.3675; in data set [1] (compound 100 µM + DAU 1.2 µM), 78.9691. For the same molecule, the “LTC = lowest toxic concentration” value in data set [2] came to 10 µM. Also, the “LDH release (inherent toxicity), mean” value was determined as 17.8445 in data set [2] (compound alone 0.01 µM); 15.2686 in data set [2] (compound alone 0.1 µM); 16.9179 in data set [2] (compound alone 1 µM); 31.7424 in data set [2] (compound alone 10 µM); 60.5761 in data set [2] (compound alone 30 µM); 70.9323 in data set [2] (compound alone 100 µM).
Turning to `CCc1cc(=O)oc2c(C(=O)N3CCCc4ccccc43)c(OC)ccc12` [3b], the “Suppl.Fig.3 DAU-induced cytotoxicity” value came out at 33.4469 in data set [1] (compound 1 µM + DAU 1.2 µM), 35.1015 in data set [1] (compound 3 µM + DAU 1.2 µM) and 31.9857 in data set [1] (compound 10 µM + DAU 1.2 µM). In addition, the “LTC = lowest toxic concentration” value in data set [2] was more than 10 µM. Further, the entries for the “LDH release (inherent toxicity), mean” value in data set [2] (compound alone 1 µM), in data set [2] (compound alone 3 µM) and in data set [2] (compound alone 10 µM) were 16.0681, 15.619 and 15.3649, respectively.
Turning to `Cc1cc(=O)oc2c(C(=O)N3CCCc4ccccc43)c(OCCO)ccc12` [5a], the minimal effective concentration in data set [1] is 30 µM. Further, the “Suppl.Fig.3 DAU-induced cytotoxicity” value is 47.2456 in data set [1] (compound 1 µM + DAU 1.2 µM), 46.8582 in data set [1] (compound 10 µM + DAU 1.2 µM), 41.4003 in data set [1] (compound 30 µM + DAU 1.2 µM) and 38.7405 in data set [1] (compound 100 µM + DAU 1.2 µM). The “LDH release (inherent toxicity), mean” value in data set [2] (compound alone 1 µM) is listed as 12.9508; in data set [2] (compound alone 10 µM), 15.8869; in data set [2] (compound alone 30 µM) it was 14.1719; in data set [2] (compound alone 100 µM), 15.685.
As for `CCCCc1cc(=O)oc2c(C(=O)N3CCCc4ccccc43)c(OCCO)ccc12` [5d], the “Suppl.Fig.3 DAU-induced cytotoxicity” value in data set [1] (compound 0.01 µM + DAU 1.2 µM) is 44.6742; in data set [1] (compound 0.1 µM + DAU 1.2 µM), 41.2776; in data set [1] (compound 1 µM + DAU 1.2 µM), 35.4099; in data set [1] (compound 10 µM + DAU 1.2 µM), 33.3492; in data set [1] (compound 30 µM + DAU 1.2 µM), 35.9089; in data set [1] (compound 100 µM + DAU 1.2 µM) it was 42.7736. Moreover, the “LDH release (inherent toxicity), mean” value came to 16.4804 in data set [2] (compound alone 0.01 µM); 15.5556 in data set [2] (compound alone 0.1 µM); 15.5462 in data set [2] (compound alone 1 µM); 19.8205 in data set [2] (compound alone 10 µM); 25.0146 in data set [2] (compound alone 30 µM); 27.0966 in data set [2] (compound alone 100 µM).
Take `Cc1cc(=O)oc2c(C(=O)N3CCCc4ccccc43)c(O)ccc12` [2a]: the results for the “Suppl.Fig.3 DAU-induced cytotoxicity” value in data set [1] (compound 10 µM + DAU 1.2 µM), in data set [1] (compound 30 µM + DAU 1.2 µM) and in data set [1] (compound 100 µM + DAU 1.2 µM) were 37.2223, 39.137 and 42.8636, respectively. Moreover, the “LDH release (inherent toxicity), mean” value in data set [2] (compound alone 10 µM) is reported as 13.7502; in data set [2] (compound alone 30 µM), 15.9605; in data set [2] (compound alone 100 µM), 17.1189.
